# Measurements: ChEMBL document CHEMBL4321848 (J Med Chem, 2019)
# Key:
# [1] = biological target: T1, Nicotinamide N-methyltransferase (Homo sapiens, UniProt P40261); assay: biochemical
# T1 sequence (P40261 whole entry): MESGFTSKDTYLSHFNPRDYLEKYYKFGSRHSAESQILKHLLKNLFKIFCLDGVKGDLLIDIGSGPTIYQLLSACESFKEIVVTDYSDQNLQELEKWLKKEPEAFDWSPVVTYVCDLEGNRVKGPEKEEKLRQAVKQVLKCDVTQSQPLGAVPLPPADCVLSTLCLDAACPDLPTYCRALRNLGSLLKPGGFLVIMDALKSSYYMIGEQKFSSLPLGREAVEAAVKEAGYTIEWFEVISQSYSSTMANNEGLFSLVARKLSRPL
# [2] = biological target: Indolethylamine N-methyltransferase (Homo sapiens, UniProt O95050); assay: Inhibition of human N- terminal His6 tagged human INMT expressed in Escherichia coli BL21-CodonPlus(DE3)-RIL using tryptamine as substrate preincubated for 10 mins in presence of AdoMet followed by substrate addition by fluorescence based SAHH enzyme coupled assay
# Sequence of Indolethylamine N-methyltransferase (O95050 whole entry, the tested form may be a part): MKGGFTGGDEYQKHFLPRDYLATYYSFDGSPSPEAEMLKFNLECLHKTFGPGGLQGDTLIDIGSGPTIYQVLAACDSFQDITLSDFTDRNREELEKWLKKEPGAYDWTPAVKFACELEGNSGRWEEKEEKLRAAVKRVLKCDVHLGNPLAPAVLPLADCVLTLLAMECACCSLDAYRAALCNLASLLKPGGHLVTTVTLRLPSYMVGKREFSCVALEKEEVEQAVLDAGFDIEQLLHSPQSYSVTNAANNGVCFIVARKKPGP
# [3] = biological target: T2, Histone-lysine N-methyltransferase EHMT2 (Homo sapiens, UniProt Q96KQ7); assay: Inhibition of recombinant human G9a (913 to 1193 residues) expressed in Escherichia coli BL21-CodonPlus(DE3)-RIL using H3-21 peptide preincubated for 10 mins in presence of AdoMet followed by substrate addition by fluorescence based SAHH enzyme coupled assay
# T2 sequence (Q96KQ7 whole entry): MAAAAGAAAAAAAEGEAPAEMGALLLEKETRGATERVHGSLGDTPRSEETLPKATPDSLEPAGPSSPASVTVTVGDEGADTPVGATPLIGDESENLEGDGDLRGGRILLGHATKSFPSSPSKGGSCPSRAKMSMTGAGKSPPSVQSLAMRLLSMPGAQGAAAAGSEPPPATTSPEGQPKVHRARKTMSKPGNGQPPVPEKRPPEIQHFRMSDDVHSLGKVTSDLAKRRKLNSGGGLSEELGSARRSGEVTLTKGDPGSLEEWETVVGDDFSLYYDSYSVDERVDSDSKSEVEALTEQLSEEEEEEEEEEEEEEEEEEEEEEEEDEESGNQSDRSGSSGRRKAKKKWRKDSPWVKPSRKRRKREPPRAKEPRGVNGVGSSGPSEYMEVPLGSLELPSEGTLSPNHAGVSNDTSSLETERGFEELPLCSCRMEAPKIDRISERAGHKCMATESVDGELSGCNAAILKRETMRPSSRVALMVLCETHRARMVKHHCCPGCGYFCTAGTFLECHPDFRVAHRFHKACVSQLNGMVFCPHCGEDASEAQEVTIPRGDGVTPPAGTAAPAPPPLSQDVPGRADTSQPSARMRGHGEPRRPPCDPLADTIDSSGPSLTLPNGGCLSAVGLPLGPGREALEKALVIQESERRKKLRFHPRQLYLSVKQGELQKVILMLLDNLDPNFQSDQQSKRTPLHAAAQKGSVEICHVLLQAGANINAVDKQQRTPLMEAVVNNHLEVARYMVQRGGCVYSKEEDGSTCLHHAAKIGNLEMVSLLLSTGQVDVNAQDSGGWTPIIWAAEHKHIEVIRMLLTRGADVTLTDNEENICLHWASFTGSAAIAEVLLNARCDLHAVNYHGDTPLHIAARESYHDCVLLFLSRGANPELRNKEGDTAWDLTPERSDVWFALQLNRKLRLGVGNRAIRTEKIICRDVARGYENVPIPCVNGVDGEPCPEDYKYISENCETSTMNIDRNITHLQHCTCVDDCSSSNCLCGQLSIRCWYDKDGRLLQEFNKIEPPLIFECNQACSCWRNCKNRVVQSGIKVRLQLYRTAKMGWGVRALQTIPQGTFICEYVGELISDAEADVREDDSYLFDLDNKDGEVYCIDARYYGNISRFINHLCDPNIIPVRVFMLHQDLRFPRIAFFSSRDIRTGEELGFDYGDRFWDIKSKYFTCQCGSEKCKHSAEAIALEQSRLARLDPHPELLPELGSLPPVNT
# [4] = biological target: Protein arginine N-methyltransferase 1 (Rattus norvegicus, UniProt Q63009); assay: Inhibition of recombinant rat His-tagged PRMT1 expressed in Escherichia coli BL21(DE3) cells using H4-21 peptide as susbtrate preincubated for 10 mins in presence of AdoMet followed by substrate addition by fluorescence based SAHH enzyme coupled assay
# Sequence of Protein arginine N-methyltransferase 1 (Q63009 whole entry): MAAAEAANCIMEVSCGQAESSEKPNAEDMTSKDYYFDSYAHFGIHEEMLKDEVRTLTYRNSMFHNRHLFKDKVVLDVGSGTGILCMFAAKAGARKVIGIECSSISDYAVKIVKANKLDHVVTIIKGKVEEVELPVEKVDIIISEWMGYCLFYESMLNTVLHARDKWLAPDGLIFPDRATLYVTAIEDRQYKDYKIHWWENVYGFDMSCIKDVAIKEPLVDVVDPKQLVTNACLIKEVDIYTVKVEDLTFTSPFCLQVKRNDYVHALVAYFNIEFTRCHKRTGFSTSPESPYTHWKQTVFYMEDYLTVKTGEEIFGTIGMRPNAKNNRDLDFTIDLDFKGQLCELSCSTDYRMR
# [5] = biological target: T3, Phenylethanolamine N-methyltransferase (Homo sapiens, UniProt P11086); assay: Inhibition of human N-terminal His6 tagged PNMT using norepinephrine as substrate preincubated for 10 mins in presence of AdoMet followed by substrate addition by fluorescence based SAHH enzyme coupled assay
# T3 sequence (P11086 whole entry): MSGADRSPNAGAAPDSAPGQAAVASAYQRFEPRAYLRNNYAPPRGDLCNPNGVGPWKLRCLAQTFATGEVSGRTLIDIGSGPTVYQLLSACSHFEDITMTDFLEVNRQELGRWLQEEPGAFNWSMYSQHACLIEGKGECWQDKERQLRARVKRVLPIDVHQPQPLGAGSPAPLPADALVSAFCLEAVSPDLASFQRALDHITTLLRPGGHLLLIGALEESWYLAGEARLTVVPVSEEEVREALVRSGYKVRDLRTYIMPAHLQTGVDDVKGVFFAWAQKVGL
# [6] = biological target: T4, Histone-lysine N-methyltransferase SETD7 (Homo sapiens, UniProt Q8WTS6); assay: Inhibition of recombinant human His-tagged SETD7 (1 to 366 residues) expressed in Escherichia coli using H3-21 peptide as susbtrate preincubated for 10 mins in presence of AdoMet followed by substrate addition by fluorescence based SAHH enzyme coupled assay
# T4 sequence (Q8WTS6 whole entry): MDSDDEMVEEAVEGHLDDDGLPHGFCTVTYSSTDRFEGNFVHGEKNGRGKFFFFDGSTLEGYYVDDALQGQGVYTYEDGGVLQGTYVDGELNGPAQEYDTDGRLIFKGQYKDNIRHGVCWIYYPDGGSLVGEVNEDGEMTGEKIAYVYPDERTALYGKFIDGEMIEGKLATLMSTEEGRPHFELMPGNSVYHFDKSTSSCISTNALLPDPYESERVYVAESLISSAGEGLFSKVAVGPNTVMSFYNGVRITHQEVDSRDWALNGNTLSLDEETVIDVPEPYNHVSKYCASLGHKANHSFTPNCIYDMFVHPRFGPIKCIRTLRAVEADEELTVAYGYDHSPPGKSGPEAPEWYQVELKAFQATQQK
# [7] = biological target: T5, N-terminal Xaa-Pro-Lys N-methyltransferase 1 (Homo sapiens, UniProt Q9BV86); assay: Inhibition of NTMT1 (unknown origin) using GPKRIA peptide as substrate preincubated for 10 mins in presence of AdoMet followed by susbtrate addition by fluorescence based SAHH enzyme coupled assay
# T5 sequence (Q9BV86 whole entry): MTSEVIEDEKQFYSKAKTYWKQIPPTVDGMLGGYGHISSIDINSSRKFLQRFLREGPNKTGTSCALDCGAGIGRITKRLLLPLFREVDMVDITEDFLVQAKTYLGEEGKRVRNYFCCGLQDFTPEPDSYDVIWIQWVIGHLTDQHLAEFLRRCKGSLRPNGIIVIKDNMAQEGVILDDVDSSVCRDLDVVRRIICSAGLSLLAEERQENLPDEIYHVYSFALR
# [8] = Inhibition of Trypanosoma brucei PRMT7 expressed in Escherichia coli preincubated for 10 mins in presence of AdoMet followed by susbtrate addition by fluorescence based SAHH enzyme coupled assay
# [9] = biological target: Adenosylhomocysteinase (Homo sapiens, UniProt P23526); assay: Inhibition of SAHH (unknown origin) using SAH as substrate preincubated for 10 mins followed by susbtrate addition by fluorescence based assay
# Sequence of Adenosylhomocysteinase (P23526 whole entry): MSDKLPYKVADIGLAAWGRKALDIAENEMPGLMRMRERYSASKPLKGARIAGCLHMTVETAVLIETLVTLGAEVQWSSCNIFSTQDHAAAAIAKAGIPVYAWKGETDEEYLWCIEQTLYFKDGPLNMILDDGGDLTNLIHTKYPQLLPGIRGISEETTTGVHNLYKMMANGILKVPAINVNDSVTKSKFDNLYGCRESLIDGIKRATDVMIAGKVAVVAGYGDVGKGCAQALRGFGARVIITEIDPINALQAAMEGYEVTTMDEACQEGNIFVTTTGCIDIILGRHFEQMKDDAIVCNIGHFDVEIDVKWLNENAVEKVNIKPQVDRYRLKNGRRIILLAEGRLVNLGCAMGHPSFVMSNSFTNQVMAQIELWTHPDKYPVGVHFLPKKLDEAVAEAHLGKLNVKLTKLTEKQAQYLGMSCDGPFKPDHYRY
SMILES,Ki [1] [µM],further results
NC(=O)c1cccc(CCCCN(CC[C@H](N)C(=O)O)C[C@H]2O[C@@H](n3cnc4c(N)ncnc43)[C@H](O)[C@@H]2O)c1,0.84,–
NC(=O)c1cccc(CCCN(CCC[C@H](N)C(=O)O)C[C@H]2O[C@@H](n3cnc4c(N)ncnc43)[C@H](O)[C@@H]2O)c1,3,–
Nc1ncnc2c1ncn2[C@@H]1O[C@H](CN(CCCc2ccc3ccccc3c2)CCC[C@H](N)C(=O)O)[C@@H](O)[C@H]1O,33.3,–
NC(=O)c1cccc(CCN(CC[C@H](N)C(=O)O)C[C@H]2O[C@@H](n3cnc4c(N)ncnc43)[C@H](O)[C@@H]2O)c1,10,–
NC(=O)c1cccc(C#CCNC[C@H]2O[C@@H](n3cnc4c(N)ncnc43)[C@H](O)[C@@H]2O)c1,3,–
NC(=O)c1cccc(C#CCN(CC[C@H](N)C(=O)O)C[C@H]2O[C@@H](n3cnc4c(N)ncnc43)[C@H](O)[C@@H]2O)c1,–,IC50 [2]: > 100 µM; IC50 [3]: > 100 µM; IC50 [4]: > 100 µM; IC50 [5]: > 100 µM; IC50 [6]: > 100 µM; IC50 [7]: > 33 µM; IC50 [8]: > 33 µM; IC50 [9]: > 3.7 µM
Nc1ncnc2c1ncn2[C@@H]1O[C@H](CN(CCc2ccc3ccccc3c2)CC[C@H](N)C(=O)O)[C@@H](O)[C@H]1O,27.3,–
Nc1ncnc2c1ncn2[C@@H]1O[C@H](CN(CCCc2cccc3ccccc23)CC[C@H](N)C(=O)O)[C@@H](O)[C@H]1O,11.8,–
COC(=O)c1cccc(CCCN(CC[C@H](N)C(=O)O)C[C@H]2O[C@@H](n3cnc4c(N)ncnc43)[C@H](O)[C@@H]2O)c1,28,–
Cc1ccc(CCCN(CC[C@H](N)C(=O)O)C[C@H]2O[C@@H](n3cnc4c(N)ncnc43)[C@H](O)[C@@H]2O)cc1C(N)=O,0.051,–
Cc1ccc(C#CCN(CC[C@H](N)C(=O)O)C[C@H]2O[C@@H](n3cnc4c(N)ncnc43)[C@H](O)[C@@H]2O)cc1C(N)=O,0.016,–
Cc1ccc(C(N)=O)cc1CCCN(CC[C@H](N)C(=O)O)C[C@H]1O[C@@H](n2cnc3c(N)ncnc32)[C@H](O)[C@@H]1O,0.15,–
NC(=O)c1cccc(CCCCN(CCC[C@H](N)C(=O)O)C[C@H]2O[C@@H](n3cnc4c(N)ncnc43)[C@H](O)[C@@H]2O)c1,0.54,–
Nc1ncnc2c1ncn2[C@@H]1O[C@H](CN(CCCc2ccc3ccccc3c2)CC[C@H](N)C(=O)O)[C@@H](O)[C@H]1O,4,–
Nc1ncnc2c1ncn2[C@@H]1O[C@H](CN(CCCc2cccc3ccccc23)CCC[C@H](N)C(=O)O)[C@@H](O)[C@H]1O,1.1,–
NC(=O)c1cccc(CCCN(CC[C@H](N)C(=O)O)C[C@H]2O[C@@H](n3cnc4c(N)ncnc43)[C@H](O)[C@@H]2O)c1,0.043,–
NC(=O)c1ccccc1 [BENZAMIDE],> 100,–
COc1ccc(C(N)=O)cc1C#CCN(CC[C@H](N)C(=O)O)C[C@H]1O[C@@H](n2cnc3c(N)ncnc32)[C@H](O)[C@@H]1O,0.052,–
